The record followed here is patent US20210352950A1 (priority 2019, published 2021).

For assay [1], the system named is phospho-AMPK (threonine 172). Kind of assay: AMPK phosphorylation (western blot). The following applies: HCT116, STS 24 hours + vitamin C 350 μM 3 hours. The assay is classed as cell-based, human. The procedure:
Cells were washed twice in ice-cold PBS and lysates were prepared in RIPA lysis buffer (50 mM Tris HCl pH 7.4, 150 mM NaCl, 1% NP-40, 0.25% deoxycholic acid, 1 mM EDTA) supplemented with protease and phosphatase inhibitors (protease inhibitor cocktail set III EDTA-free, Calbiochem, Cat. #: S39134; PhosStop, Roche), Samples were sonicated (bioruptor plus, diogenode) and centrifuged at 16.1 g for 30 minutes at 4° C. Tumor tissues were collected and snap frozen in liquid nitrogen immediately after mice were sacrificed, and stored in -80° C. until use. […] Protein concentrations were determined by BCA assay (Thermo Fisher Scientific, Cat. #: 23225). Proteins were diluted in 1× Laemmli sample buffer, boiled at 95° C. for 5 minutes and 30 μg of total proteins were separated by using SDS-PAGE and analyzed by western blotting by standard procedures. […] Membranes were incubated overnight at 4° C. with gentle shaking with the following primary antibodies: […] ADI-SPA894), FTH (1:1000, Cell Signaling, Cat. #: 3998), AMPK (1:1000, Cell Signaling, Cat. #: 2532), phospho-[…] AMPK (1:1000, Cell Signaling, Cat. #: 2535), eIF2a (1:1000, Cell signaling, Cat. #: 5324), phospho […] eIF2a (1:1000, Cell signaling, Cat. #: 3597), AKT (1:1000, Cell Signaling, Cat. #: 9272), phospho-[…] […] Bands intensity was quantified with NIH Image J software (version 1.48v).
A general note: In western blotting, separated proteins are transferred to a membrane and probed.

Assay [2] concerns ferrous ion (Fe2+) in HCT116 cells. Kind of assay: Intracellular ferrous iron detection (Iron Assay Kit). It counts as cell-based, human. The following applies: HCT116, STS 24 hours + vitamin C 350 μM 3 hours, compared to all other conditions. The method, then: Intracellular ferrous ions were measured using Iron Assay Kit (Cat. #: ab83366). Ferrous ions (Fe^2+), but not ferric ions (Fe^3+) specifically reacts with […] (an iron chromogen) producing a stable colored complex, whose absorbance is measured at 593 nm. For Fe^2+ measurement experiment, cells were seeded in 10 cm petri dish (4×10^5 cells) in CTR medium. After 24 hours cells were rinsed twice in 1×PBS and CTR or STS medium was added. […] Next, cells were lysed in iron assay buffer and intracellular ferrous iron level was measured according to manufacturer protocol. Absorbance was recorded at the wavelength of 593 nm using a microplate reader (Infinite M200 TECAN). Data are expressed as fold change versus control sample.

For the compound `O=C1O[C@H]([C@@H](O)CO)C(O)=C1O` [vitamin C, ascorbic acid], the AMPK phosphorylation level entry in assay [1] is on record as “strongly up-regulated AMPK phosphorylation level”. The “ferrous ion (Fe2+) level” value in assay [2] is listed as “significantly higher”.
